System: LPS-treated animals
Test: Survival study of LPS-treated animals with teriflunomide
Type: in vivo
Conditions: 20 mg/kg of LPS i.p. and 4 mg of teriflunomide
Protocol: A survival study was performed with sixteen animals per group of LPS-treated animals following no treatment and treatment with teriflunomide. The control group received 20 mg/kg of LPS i.p. and no treatment; whereas the teriflunomide group received 20 mg/kg of LPS and 4 mg of teriflunomide. None of the control animals lived up to 24 hours, whereas 6 of the teriflunomide treat animals lived out to 96 hours at which time they appeared normal. The P value for the difference was less than 0.0021. FIG. 20 is a graphical representation of the survival of LPS-treated animals following no treatment and treatment with teriflunomide. All of the animals were treated with 20 mg/kg of LPS i.p. Kaplan-Meier survival in response to LPS administration. Comparison of the trend of survival curve was done using the log-rank (Mantel-Cox) test (recommended), and ** p<0.01.

C/C(O)=C(\C#N)C(=O)Nc1ccc(C(F)(F)F)cc1 [teriflunomide]
Median survival (Kaplan-Meier): 48.00
animals that lived out to 96 hours (sixteen animals per group): 6
